Assay results published in patent US11214565B2, “Compound, compositions, and methods” (Denali Therapeutics Inc., priority 2015, dated 2022).

Each molecule was assayed against LRRK2 G2019S enzyme (Homo sapiens (Human), UniProt Q5S007, G2019S) (assay: LRRK2 G2019S TR-FRET biochemical kinase assay (LRRKtide substrate)). Conditions: Table A-2; 5 nM LRRK2, 134 μM ATP, 60 minute reaction, 23° C.
Experimental: LRRK2 G2019S enzyme, Substrate (LRRKtide), ATP, TR-FRET dilution buffer, pLRRKtide antibody, 384-well assay plate, and DMSO.
50 mM Tris pH 7.5, 10 mM MgCl2, 1 mM EGTA, 0.01% Brij-35, 2 mM DTT, 5 nM LRRK2, 134 μM ATP, 60 minute reaction time, 23° C. reaction temperature, and 10 μL total reaction volume.
1×TR-FRET dilution buffer, 10 mM EDTA, 2 nM antibody, 23° C. reaction temperature, and 10 μL total reaction volume.
Compound solutions were prepared by initially diluting to 1 mM with DMSO. 35 μL of reference compound solution, 35 μL of test compound solution, and 35 μL HPE were successively added to the source plate (384-well assay plate, Labcyte). The plates were centrifuged at 2500 rpm for 1 minute and sealed in foil. POD was used to perform a 3.162 fold serial dilution and 100 nL of reference compound solution, test compound solution, HPE and ZPE were transferred to assay plates. The assay plate was centrifuged at 2500 rpm for 1 minute, and sealed with foil.
To perform the enzyme reaction, 5 μL of LRRKtide substrate and kinase mixture in assay buffer was added to all wells of the assay plate. The plate was centrifuged to concentrate the mixture at the bottom of the wells. The assay plate was incubated at 23° C. for 20 minutes. Following incubation, 5 μL of 2×ATP in assay buffer was added to each well, and plates were centrifuged to concentrate the mixture at the bottom of the wells. The plate was incubated at 23° C. for 60 minutes.
To perform the detection of the reaction, EDTA completely mixed in TR-FRET dilution buffer was added to antibody reagent. 10 μL of detection reagent was added to all wells of each well of the assay-plate and the plate was centrifuged to concentrate the mixture at the bottom of the wells. The plate was then incubated at 23° C. for 60 minutes. Plates were read on Perkin Elmer Envision 2104 instrument in TR-FRET mode using a 340 nm excitation filter, 520 nm fluorescence emission filter, and 490 or 495 nm terbium emission filter.
B-2, C2, and D-4 respectively.

Sequence of LRRK2 G2019S enzyme (Q5S007 whole entry G2019S): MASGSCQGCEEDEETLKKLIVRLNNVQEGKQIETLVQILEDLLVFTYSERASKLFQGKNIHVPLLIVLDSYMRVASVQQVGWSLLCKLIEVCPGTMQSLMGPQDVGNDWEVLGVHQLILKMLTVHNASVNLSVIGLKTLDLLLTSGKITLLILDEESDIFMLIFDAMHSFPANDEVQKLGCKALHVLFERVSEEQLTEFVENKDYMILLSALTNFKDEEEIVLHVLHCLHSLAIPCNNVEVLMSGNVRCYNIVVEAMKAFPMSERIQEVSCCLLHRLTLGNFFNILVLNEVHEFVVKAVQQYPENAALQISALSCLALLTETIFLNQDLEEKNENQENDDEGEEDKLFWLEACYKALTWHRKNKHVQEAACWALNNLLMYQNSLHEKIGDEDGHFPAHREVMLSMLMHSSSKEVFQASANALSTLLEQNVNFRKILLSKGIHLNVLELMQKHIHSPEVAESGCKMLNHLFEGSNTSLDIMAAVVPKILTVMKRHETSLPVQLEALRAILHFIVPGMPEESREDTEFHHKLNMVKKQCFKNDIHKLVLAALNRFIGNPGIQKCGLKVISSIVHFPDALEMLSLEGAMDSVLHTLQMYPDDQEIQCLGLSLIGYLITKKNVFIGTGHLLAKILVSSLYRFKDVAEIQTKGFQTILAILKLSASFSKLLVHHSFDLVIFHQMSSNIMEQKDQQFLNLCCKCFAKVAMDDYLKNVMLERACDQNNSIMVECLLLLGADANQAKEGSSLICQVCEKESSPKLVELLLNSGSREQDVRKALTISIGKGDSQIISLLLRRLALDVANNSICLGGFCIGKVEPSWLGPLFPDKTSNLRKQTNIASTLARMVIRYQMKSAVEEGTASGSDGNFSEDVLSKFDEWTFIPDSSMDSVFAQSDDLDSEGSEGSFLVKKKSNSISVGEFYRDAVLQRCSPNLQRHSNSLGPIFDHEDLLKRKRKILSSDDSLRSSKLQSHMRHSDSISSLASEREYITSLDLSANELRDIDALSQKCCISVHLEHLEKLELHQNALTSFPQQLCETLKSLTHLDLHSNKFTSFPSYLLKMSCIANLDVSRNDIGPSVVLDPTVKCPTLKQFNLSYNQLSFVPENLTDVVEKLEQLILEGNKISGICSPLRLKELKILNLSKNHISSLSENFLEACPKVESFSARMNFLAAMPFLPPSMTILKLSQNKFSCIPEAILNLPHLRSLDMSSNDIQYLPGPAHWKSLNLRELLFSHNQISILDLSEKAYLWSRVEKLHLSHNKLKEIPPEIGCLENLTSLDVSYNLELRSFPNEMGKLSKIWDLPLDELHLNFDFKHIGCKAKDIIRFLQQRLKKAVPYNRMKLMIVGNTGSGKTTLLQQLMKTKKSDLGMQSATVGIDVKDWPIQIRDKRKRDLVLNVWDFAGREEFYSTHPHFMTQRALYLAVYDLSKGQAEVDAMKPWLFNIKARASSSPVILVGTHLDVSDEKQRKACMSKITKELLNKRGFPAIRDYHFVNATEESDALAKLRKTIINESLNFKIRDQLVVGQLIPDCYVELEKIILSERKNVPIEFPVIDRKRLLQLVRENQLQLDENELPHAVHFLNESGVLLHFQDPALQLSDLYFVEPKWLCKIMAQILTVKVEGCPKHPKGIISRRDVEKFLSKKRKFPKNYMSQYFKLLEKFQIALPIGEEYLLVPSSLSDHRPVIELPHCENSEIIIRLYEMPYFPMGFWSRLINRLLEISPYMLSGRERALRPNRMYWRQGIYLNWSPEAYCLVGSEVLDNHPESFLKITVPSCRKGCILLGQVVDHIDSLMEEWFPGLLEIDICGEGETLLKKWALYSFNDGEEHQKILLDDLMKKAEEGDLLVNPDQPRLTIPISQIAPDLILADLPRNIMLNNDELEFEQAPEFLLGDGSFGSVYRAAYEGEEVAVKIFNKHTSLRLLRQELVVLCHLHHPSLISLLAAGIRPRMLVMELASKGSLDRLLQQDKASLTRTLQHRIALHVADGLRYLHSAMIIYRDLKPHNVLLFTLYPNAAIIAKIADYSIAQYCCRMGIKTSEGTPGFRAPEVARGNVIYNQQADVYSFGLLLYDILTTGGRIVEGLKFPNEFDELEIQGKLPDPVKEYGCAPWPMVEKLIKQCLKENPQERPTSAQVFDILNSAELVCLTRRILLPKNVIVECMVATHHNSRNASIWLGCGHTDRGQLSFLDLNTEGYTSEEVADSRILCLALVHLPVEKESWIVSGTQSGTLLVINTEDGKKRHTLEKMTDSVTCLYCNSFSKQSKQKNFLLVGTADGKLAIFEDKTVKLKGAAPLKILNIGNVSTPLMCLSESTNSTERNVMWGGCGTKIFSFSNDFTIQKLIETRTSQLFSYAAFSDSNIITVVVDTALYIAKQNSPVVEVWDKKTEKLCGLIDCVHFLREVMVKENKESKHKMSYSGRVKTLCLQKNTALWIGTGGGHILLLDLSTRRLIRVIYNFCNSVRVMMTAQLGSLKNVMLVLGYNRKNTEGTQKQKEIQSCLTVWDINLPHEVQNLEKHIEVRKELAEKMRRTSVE

Row | Compound | IC50
1 | Cc1c(Nc2ncc(C(F)(F)F)c(C3CC3)n2)cnn1C1CCOCC1 [Compound A-24, 4-cyclopropyl-N-(5-methyl-1-tetrahydropyran-4-yl-pyrazol-4-yl)-5-(trifluoromethyl)pyrimidin-2-amine] | < 30 nM
2 | Cc1nn(C2CCOCC2)cc1Nc1ncc(C(F)(F)F)c(C2CC2)n1 [Compound A-25, 4-cyclopropyl-N-(3-methyl-1-tetrahydropyran-4-yl-pyrazol-4-yl)-5-(trifluoromethyl)pyrimidin-2-amine] | 30 to 60 nM
3 | Cc1c(Nc2ncc(C(F)(F)F)c(C3CC3)n2)cnn1C1CCC(=O)N(C)C1 (centres unmarked) [Compound A-26, 5-(4-((4-cyclopropyl-5-(trifluoromethyl)pyrimidin-2-yl)amino)-5-methyl-1H-pyrazol-1-yl)-1-methylpiperidin-2-one] | < 30 nM
4 | Cc1nn(C2CCC(=O)N(C)C2)cc1Nc1ncc(C(F)(F)F)c(C2CC2)n1 (centres unmarked) [Compound A-27, 5-(4-((4-cyclopropyl-5-(trifluoromethyl)pyrimidin-2-yl)amino)-3-methyl-1H-pyrazol-1-yl)-1-methylpiperidin-2-one] | > 60 nM
5 | Cc1c(Nc2ncc(C(F)(F)F)c(C3CC3)n2)cnn1C(CF)CF [Compound A-28, 4-cyclopropyl-N-[1-[2-fluoro-1-(fluoromethyl)ethyl]-5-methyl-pyrazol-4-yl]-5-(trifluoromethyl)pyrimidin-2-amine] | < 30 nM
6 | Cc1nn(C(CF)CF)cc1Nc1ncc(C(F)(F)F)c(C2CC2)n1 [Compound A-29, 4-cyclopropyl-N-[1-[2-fluoro-1-(fluoromethyl)ethyl]-3-methyl-pyrazol-4-yl]-5-(trifluoromethyl)pyrimidin-2-amine] | < 30 nM
7 | Cc1c(Nc2ncc(C(F)(F)F)c(C3CC3)n2)cnn1CCF [Compound A-30, 4-cyclopropyl-N-(1-(2-fluoroethyl)-5-methyl-1H-pyrazol-4-yl)-5-(trifluoromethyl)pyrimidin-2-amine] | < 30 nM
8 | Cc1nn(CCF)cc1Nc1ncc(C(F)(F)F)c(C2CC2)n1 [Compound A-31, 4-cyclopropyl-N-(1-(2-fluoroethyl)-3-methyl-1H-pyrazol-4-yl)-5-(trifluoromethyl)pyrimidin-2-amine] | < 30 nM
9 | Cc1nn(C(C)(C)C#N)cc1Nc1ncc(Cl)c(C2CCC2)n1 [Compound A-32, 2-(4-((5-chloro-4-cyclobutylpyrimidin-2-yl)amino)-3-methyl-1H-pyrazol-1-yl)-2-methylpropanenitrile] | > 60 nM
10 | Cc1nn(C(C)(C)c2ccnn2C)cc1Nc1ncc(Cl)c(C2CC2)n1 [Compound A-33, 5-chloro-4-cyclopropyl-N-(3-methyl-1-(2-(1-methyl-1H-pyrazol-5-yl)propan-2-yl)-1H-pyrazol-4-yl)pyrimidin-2-amine] | > 60 nM
11 | Cc1nn(C(C)(C)c2ccn(C)n2)cc1Nc1ncc(Cl)c(C2CC2)n1 [Compound A-34, 5-chloro-4-cyclopropyl-N-(3-methyl-1-(2-(1-methyl-1H-pyrazol-3-yl)propan-2-yl)-1H-pyrazol-4-yl)pyrimidin-2-amine] | < 30 nM
12 | Cc1nn(C(C)(C)c2ncn(C)n2)cc1Nc1ncc(Cl)c(C2CC2)n1 [Compound A-35, 5-chloro-4-cyclopropyl-N-(3-methyl-1-(2-(1-methyl-1H-1,2,4-triazol-3-yl)propan-2-yl)-1H-pyrazol-4-yl)pyrimidin-2-amine] | < 30 nM
13 | Cn1cnc(C(C)(C)n2cc(Nc3ncc(C(F)(F)F)c(C4CC4)n3)c(Cl)n2)n1 [Compound A-36, N-(3-chloro-1-(2-(1-methyl-1H-1,2,4-triazol-3-yl)propan-2-yl)-1H-pyrazol-4-yl)-4-cyclopropyl-5-(trifluoromethyl)pyrimidin-2-amine] | < 30 nM
14 | Cn1ncnc1C(C)(C)n1cc(Nc2ncc(C(F)(F)F)c(C3CC3)n2)c(Cl)n1 [Compound A-37, N-(3-chloro-1-(2-(1-methyl-1H-1,2,4-triazol-5-yl)propan-2-yl)-1H-pyrazol-4-yl)-4-cyclopropyl-5-(trifluoromethyl)pyrimidin-2-amine] | > 60 nM
15 | Cc1nn(C(C)(C)C#N)cc1Nc1ncc(C(F)(F)F)c(C2(F)CC2)n1 [Compound A-38, 2-(4-((4-(1-fluorocyclopropyl)-5-(trifluoromethyl)pyrimidin-2-yl)amino)-3-methyl-1H-pyrazol-1-yl)-2-methylpropanenitrile] | > 60 nM
16 | Cc1nn(C(C)(C)c2cn(C)nn2)cc1Nc1ncc(C(F)(F)F)c(C2CC2)n1 [Compound A-39, 4-cyclopropyl-N-(3-methyl-1-(2-(1-methyl-1H-1,2,3-triazol-4-yl)propan-2-yl)-1H-pyrazol-4-yl)-5-(trifluoromethyl)pyrimidin-2-amine] | < 30 nM
17 | Cc1nn(C(C)(C)c2cnn(C)n2)cc1Nc1ncc(C(F)(F)F)c(C2CC2)n1 [Compound A-40, 4-cyclopropyl-N-(3-methyl-1-(2-(2-methyl-2H-1,2,3-triazol-4-yl)propan-2-yl)-1H-pyrazol-4-yl)-5-(trifluoromethyl)pyrimidin-2-amine] | < 30 nM
18 | Cc1nn(C2(c3ncn(C)n3)CCC2)cc1Nc1ncc(C(F)(F)F)c(C2CC2)n1 [Compound A-41, 4-cyclopropyl-N-[3-methyl-1-[1-(1-methyl-1,2,4-triazol-3-yl)cyclobutyl]pyrazol-4-yl]-5-(trifluoromethyl)pyrimidin-2-amine] | < 30 nM
19 | Cc1nn(C2(c3ncnn3C)CCC2)cc1Nc1ncc(C(F)(F)F)c(C2CC2)n1 [Compound A-42, 4-cyclopropyl-N-[3-methyl-1-[1-(2-methyl-1,2,4-triazol-3-yl)cyclobutyl]pyrazol-4-yl]-5-(trifluoromethyl)pyrimidin-2-amine] | > 60 nM
20 | Cc1c(Nc2ncc(Cl)c(C3CC3)n2)cnn1C(CF)CF [Compound A-43, 5-chloro-4-cyclopropyl-N-[1-[2-fluoro-1-(fluoromethyl)ethyl]-5-methyl-pyrazol-4-yl]pyrimidin-2-amine] | < 30 nM
21 | Cc1nn(C(CF)CF)cc1Nc1ncc(Cl)c(C2CC2)n1 [Compound A-44, 5-chloro-4-cyclopropyl-N-[1-[2-fluoro-1-(fluoromethyl)ethyl]-3-methyl-pyrazol-4-yl]pyrimidin-2-amine] | < 30 nM
22 | FCC(CF)n1ncc(Nc2ncc(C(F)(F)F)c(C3CC3)n2)c1Cl [Compound A-45, N-[5-chloro-1-[2-fluoro-1-(fluoromethyl)ethyl]pyrazol-4-yl]-4-cyclopropyl-5-(trifluoromethyl)pyrimidin-2-amine] | < 30 nM
23 | FCC(CF)n1cc(Nc2ncc(C(F)(F)F)c(C3CC3)n2)c(Cl)n1 [Compound A-46, N-[3-chloro-1-[2-fluoro-1-(fluoromethyl)ethyl]pyrazol-4-yl]-4-cyclopropyl-5-(trifluoromethyl)pyrimidin-2-amine] | < 30 nM
24 | Cc1nn(C2(C#N)CC2)cc1Nc1ncc(C(F)(F)F)c(C2CC2)n1 [Compound A-47, 1-[4-[[4-cyclopropyl-5-(trifluoromethyl)pyrimidin-2-yl]amino]-3-methyl-pyrazol-1-yl]cyclopropanecarbonitrile] | < 30 nM
25 | F[C@H]1CN(C2COC2)CC[C@@H]1n1ncc(Nc2ncc(C(F)(F)F)c(C3CC3)n2)c1Cl [Compound A-48, N-(5-chloro-1-((3S,4S)-3-fluoro-1-(oxetan-3-yl)piperidin-4-yl)-1H-pyrazol-4-yl)-4-cyclopropyl-5-(trifluoromethyl)pyrimidin-2-amine] | < 30 nM
26 | CCn1cnc(C(C)(C)n2cc(Nc3ncc(C(F)(F)F)c(C4CC4)n3)c(C)n2)n1 [Compound A-51, 4-cyclopropyl-N-(1-(2-(1-ethyl-1H-1,2,4-triazol-3-yl)propan-2-yl)-3-methyl-1H-pyrazol-4-yl)-5-(trifluoromethyl)pyrimidin-2-amine] | < 30 nM
27 | Cc1nn(C2(c3ncn(C)n3)CC2)cc1Nc1ncc(C(F)(F)F)c(C2CC2)n1 [Compound A-52, 4-cyclopropyl-N-[3-methyl-1-[1-(1-methyl-1,2,4-triazol-3-yl)cyclopropyl]pyrazol-4-yl]-5-(trifluoromethyl)pyrimidin-2-amine] | > 60 nM
28 | Cc1nn(C(C)(C)c2ncn(C)n2)cc1Nc1ncc(Br)c(C2CC2)n1 [Compound A-53, 5-bromo-4-cyclopropyl-N-(3-methyl-1-(2-(1-methyl-1H-1,2,4-triazol-3-yl)propan-2-yl)-1H-pyrazol-4-yl)pyrimidin-2-amine] | < 30 nM
29 | Cc1c(Nc2ncc(C(F)(F)F)c(C3CC3)n2)cnn1Cc1ccn(C)n1 [Compound A-54, 4-cyclopropyl-N-[5-methyl-1-[(1-methylpyrazol-3-yl)methyl]pyrazol-4-yl]-5-(trifluoromethyl)pyrimidin-2-amine] | < 30 nM
